One data set deals with NCI-H446 tumor cells. Nature of the data set: In vitro synergy, CellTiter-Glo viability assay with Bliss synergy method. The class given is cell-based. The settings on record: in combination with carboplatin, 72 hours, 9 doses, 0-10 uM and carboplatin 0-300 uM, Bliss score >5 demonstrates synergy. How it is done: NCI-H446 tumor cells were plated at a density of 5000 cells/90 ul in 96 well plates. Cells were treated with Compound of formula (I) and/or carboplatin, either alone or in combination with 9 different doses (3-fold serial dilutions starting at 10 uM for Compound of formula (I) and 300 uM for carboplatin) for 72 hours.

Data set [1] relates to NCI-H446 SCLC tumor cells. In words: NCI-H446 CDX model, tumor growth inhibition. Type of data set: in vivo, Balb/c nude mice. The conditions noted are these: 16 day cycle; for TGI effects compared to vehicle: monotherapy, Compound of formula (I) 30 mg/kg QD 3 consecutive days a week P.O., carboplatin 50 mg/kg QW I.V. How it is done: (§1) Female Balb/c nude mice were inoculated subcutaneously with 5×10^6 NCI-H446 SCLC tumor cells. Animals were randomized when tumor volume reached approximately 100-150 mm^3. Animals were treated with vehicle (0.5% methycellulose, 1% Tween 80 P.O. and saline I.V.), Compound of formula (I) formulated as a suspension in 0.5% methycellulose and 1% Tween 80 (30 mg/kg QD, 3 consecutive days a week, P.O.), or Carboplatin (50 mg/kg QW, I.V.) administered over a 16 day cycle, either alone or in combination (5 animals per group). In combination arms, Compound of formula (I) was administered 2 hours prior to chemotherapy. Tumor growth was monitored twice weekly by caliper measurement and tumor volume calculated using the equation V=(L×W×W)/2, where V is tumor volume, L is tumor length (the longest tumor dimension) and W is tumor width (the longest tumor dimension perpendicular to L). During routine monitoring, the animals were checked for any effects of tumor growth and treatments on behavior such as mobility, food and water consumption, body weight gain/loss 3 times a week, eye/hair matting and any other abnormalities. Mortality and observed clinical signs were recorded for individual animals.

For a further data set, the system named is SCLC organoids. Nature of the data set: SCLC organoid models, Cell Titer Glow 3D viability and Bliss synergy. Type of data set: cell-based. The settings on record: for bliss synergy score: vs carboplatin/etoposide (5:1 ratio) as a single treatment. Here is the method:
SCLC organoids from 16 models were prepared as follows: SCLC organoid models were expanded in 6-well plates, each well containing 2 ml of organoid medium. On the day of organoid seeding 20 μL 100× Dispase solution was added to each well and the plates were incubated at 37° C. for 30 min. Organoids were passed through a pre-wet 100 μm filter into a 50 ml plastic tube and subsequently further filtered through a wet 20 μm filter. Organoids were resuspended in culture media and counted. Matrigel was added to a final concentration of 5% v/v and 40 μL of cell suspensions add to each well of a 384-well plate by Multidrop dispenser.
The treatments tested for each organoid model were as follows: • (a) Compound of Formula (I) in monotherapy, • (b) carboplatin and etoposide (in a 5:1 ratio, considered as a single treatment), or • (c) Compound of Formula (I) in combination with carboplatin and etoposide, using the following concentrations in a matrix format: compound of Formula (I) in 6 concentrations from 0.047 to 1.5 μM, carboplatin in 6 concentrations from 0.156 to 5 μM, and etoposide in 6 concentrations from 0.031 to 1 μM)). Thus, for the carboplatin and etoposide treatment (considered as a single treatment in this experiment), the lowest concentration of carboplatin was combined with the lowest concentration of etoposide in a 5:1 ratio, the 2nd lowest doses of both reagents were combined, etc., while maintaining the 5:1 ratio. Then, each of these combinations were used either alone (carboplatin/etoposide treatment) or in further combination with each concentration of Compound of Formula (I).
The screening plates were incubated with treatments for 5 days. All treatments were performed in technical triplicates and biological replicates.
Plates were assayed for luminescent Cell Titer Glow (CTG) signal by adding 40 μL of CTG 3D per well by Multidrop dispenser, mixing for 5 mins and incubating for 30 min at room temperature in the dark. Luminescence signal was then measured on Envision plate reader.
The surviving and inhibition rates were calculated as follows for each treatment: […]
For synergy calculations and creation of heatmaps, the Bliss independence model was used on synergyfinder.org (Zheng, S.; Wang, W.; Aldahdooh, J.; Malyutina, A.; Shadbahr, T.; Tanoli Z; Pessia, A.; Jing, T. SynergyFinder Plus: Toward Better Interpretation and Annotation of Drug Combination Screening Datasets. Genomics, Proteomics & Bioinformatics 2022, in press. doi:10.1016/j.gpb.2022.01.004) considering carboplatin/etoposide as a single treatment vs Compound of Formula (I). 9 out of 16 models had bliss synergy scores >5 between Compound of Formula (I) and the carboplatin/etoposide treatment. […]
For orientation: In ATP-based viability assays light output follows the ATP content of the culture.

Data set [2] can be described thus: NCI-H446 CDX model, tolerability (body weight). The conditions noted are these: in combination with carboplatin 50 mg/kg QW I.V.; 16 day cycle. The class given is in vivo. Here is the method: as §1
A short description of data set [3]: SC6 PDX model, tolerability (body weight). The class given is in vivo. The conditions noted are these: in combination with etoposide. Here is the method:
(§2) Female athymic nude mice were inoculated subcutaneously with tumor fragments from SC6 PDX tumors. Animals were randomized when tumor volume reached approximately 60-200 mm^3. Animals were treated with vehicle (0.5% methycellulose, 1% Tween 80 P.O. and saline I.V.), Compound of formula (I) formulated as a suspension in 0.5% methycellulose and 1% Tween 80 (30 mg/kg QD, P.O.), Carboplatin (25 mg/kg QW, I.P.) or etoposide (6 mg/kg QD [3 d on/4 d off], I.P.), administered over a 21 day cycle either alone or in combination (7 animals per group). In combination arms, Compound of formula (I) was administered 2 hours prior to chemotherapy. Tumor growth was monitored twice weekly by caliper measurement and tumor volume calculated using the equation V=(L×W×W)/2, where V is tumor volume, L is tumor length (the longest tumor dimension) and W is tumor width (the longest tumor dimension perpendicular to L). During routine monitoring, the animals were checked for any effects of tumor growth and treatments on behavior such as mobility, food and water consumption, body weight gain/loss 3 times a week, eye/hair matting and any other abnormalities. Mortality and observed clinical signs were recorded for individual animals.

The nature of data set [4]: NCI-H1048 CDX model, tolerability (body weight). Type of data set: in vivo. How it is done: (§3) Female Balb/c nude mice were inoculated subcutaneously with 5×10^6 NCI-H1048 SCLC tumor cells. Animals were randomized when tumor volume reached approximately 100-150 mm^3. Animals were treated with vehicle (0.5% methycellulose, 1% Tween 80 P.O. and saline I.V.), Compound of formula (I) formulated as a suspension in 0.5% methycellulose and 1% Tween 80 (30 mg/kg QD, P.O.), Carboplatin (50 mg/kg QW, I.V.) or etoposide (25 mg/kg or 12.5 mg/kg QW, I.P.), administered over a 21 day cycle, either alone or in combination (8 animals per group in double combination studies; 10 animals per group in triple combination study). In combination arms, Compound of formula (I) was administered 2 hours prior to chemotherapy. Tumor growth was monitored twice weekly by caliper measurement and tumor volume calculated using the equation V=(L×W×W)/2, where V is tumor volume, L is tumor length (the longest tumor dimension) and W is tumor width (the longest tumor dimension perpendicular to L). During routine monitoring, the animals were checked for any effects of tumor growth and treatments on behavior such as mobility, food and water consumption, body weight gain/loss 3 times a week, eye/hair matting and any other abnormalities. Mortality and observed clinical signs were recorded for individual animals.

The subject of the next data set is SC6 PDX tumors. Nature of the data set: SC6 patient derived xenograft (PDX) model, tumor growth inhibition. Type of data set: in vivo, athymic nude mice. The conditions noted are these: for tumor growth inhibition (TGI): 30 mg/kg QD P.O. in combination with etoposide 6 mg/kg QD [3 d on/4 d off] I.P., compared to vehicle control. Here is the method:
as §2
(In general: A xenograft is tissue or cells of one species grown in another, often human tumour cells in immunodeficient mice.)

Data set [5] deals with NCI-H1048 SCLC tumor cells. Nature of the data set: NCI-H1048 cell line-derived xenograft (CDX) model, tumor growth inhibition. Type of data set: in vivo, Balb/c nude mice. How it is done: as §3
Another data set concerns SCLC. The conditions noted are these: SCLC patients; in combination with olaparib, or with carboplatin in platinum-refractory SCLC (BALTIC study, Arm B, NCT02937818); preliminary data; cited from earlier work.
The mark [6] stands for this setting: triple combination with carboplatin and etoposide.

The values that follow come from patent publication US20260027117A1, “METHODS OF TREATING SMALL CELL LUNG CANCER” (Debiopharm International S.A., priority 2022, published 2026).

A value given as a limit tells only on which side of the number the result lay.

One may read the IC50 as the concentration that inhibits the measured activity by half. What is called inhibition is the drop in the measured response relative to a control, in per cent. `Cc1cc(Nc2ncc3c(n2)N(C)CN(c2c(Cl)cccc2Cl)C3=O)ccc1C1CCN(C)CC1` [Compound of formula (I)]: in the data set with NCI-H446 tumor cells, the “synergistic antitumor activity (Bliss synergy)” value is “strong synergistic antitumor activity”. The “tumor growth inhibition (TGI)” value in data set [1] (30 mg/kg QD 3 consecutive days a week P.O. in combination with carboplatin 50 mg/kg QW I.V., compared to vehicle, p=0.028) is on record as 67%; in the data set on SC6 PDX tumors (day 7), 34%; with SC6 PDX tumors (day 11, p=0.012), 61%; in data set [5] (30 mg/kg QD P.O. in combination with carboplatin 50 mg/kg QW I.V., 21 day cycle, vs vehicle controls, p=0.0026) it was “about 68%”; in data set [5] (30 mg/kg QD P.O. in combination with etoposide (25 mg/kg or 12.5 mg/kg QW I.P.), 21 day cycle, vs vehicle controls, p=0.00015) it was about 78%; in [5] (monotherapy 30 mg/kg QD P.O., 21 day cycle, vs vehicle, p=0.016), “up to 54%”. For the same molecule, the “tumor growth inhibition (TGI)” value in data set [5] (triple combination with carboplatin (50 mg/kg) and etoposide (12.5 mg/kg), compared to carboplatin and etoposide combination, p=0.0043) is given as 44%; in [5] (triple combination with carboplatin (50 mg/kg) and etoposide (12.5 mg/kg), compared to vehicle controls, p<0.0001) it was 72%. Besides, the “TGI effects compared to vehicle” value in data set [1] is listed as “no significant TGI effects”. Also, in the data set on SCLC organoids (120 h, monotherapy, 5 days, in 12 out of 16 SCLC organoids), the IC50 was under 1500 nM. For the same molecule, in the data set on SCLC organoids (monotherapy, at 1.5 uM (highest dose tested), in 12 out of 16 SCLC organoids, read-out: maximum inhibition rate (cell death rate)), the inhibition at 1.5 µM was over 60%. The bliss synergy score was over 10 with SCLC organoids (5 days, in 5 of these models (FIG. 8), highly significant) and over 5 with SCLC organoids (5 days, in 9 out of 16 SCLC organoid models). Besides, the body weight loss entry is “No significant body weight loss” in [2]; “some transient body weight losses” in [3] (immediately following treatment, all animals recovered quickly); “No significant body weight loss” in data set [4] (in combination with carboplatin 50 mg/kg QW I.V.); “No significant body weight loss” in data set [4] (in combination with etoposide QW I.P.); “No significant body weight loss” in data set [4] (monotherapy 30 mg/kg QD P.O., 21 day cycle); “No significant body weight loss” in [4] (setting [6]). The tolerability entry in [3] and in data set [4] (setting [6]) was “well tolerated” in each case. Moreover, the “mice remaining below the maximum tumor volume ethical criteria at end of treatment” value in the data set with SC6 PDX tumors (in combination with etoposide, end of treatment (21 days), 7 animals per group) was 4/7. For the same molecule, in data set [5] (triple combination with carboplatin and etoposide, compared to carboplatin and etoposide treatments alone or to the double combination), the tumor response entry is listed as “significantly improved tumor response”.
For `C=CCn1c(=O)c2cnc(Nc3ccc(N4CCN(C)CC4)cc3)nc2n1-c1cccc(C(C)(C)O)n1` [adavosertib], the antitumor activity result with SCLC is “limited antitumor activity”.
For the molecule `N.N.O=C([O-])C1(C(=O)[O-])CCC1.[Pt+2]` [carboplatin, reference compound], in data set [1], the “TGI effects compared to vehicle” value is recorded as “no significant TGI effects”.
